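Cells were grown in 96-well plates and exposed to each compound for 48 hours at five concentrations; endpoints were interpolated linearly between bracketing concentrations, or set to the highest concentration if not reached. GI50: concentration for 50% inhibition of growth.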 Calls of active or inactive are those of the source. Rule as the data show it: active = GI50 up to about 1.1 µM and inactive = higher.
Assays:
Assay in all cases: DTP human tumour cell line panel, 48 h
EKVX = tested on: EKVX
SNB-19 = tested on: SNB-19
SNB-78 = tested on: SNB-78
IGROV-1 = tested on: IGROV-1
NCI-H226 = tested on: NCI-H226
SW-620 = tested on: SW-620
HT-29 = tested on: HT-29
COLO 205 = tested on: COLO 205
U-251 = tested on: U-251
SF-268 = tested on: SF-268
HOP-18 = tested on: HOP-18
DMS-114 = tested on: DMS-114
SF-295 = tested on: SF-295
LXFL 529 = tested on: LXFL 529
DMS-273 = tested on: DMS-273
UACC-62 = tested on: UACC-62
OVCAR-5 = tested on: OVCAR-5
A549 = tested on: A549
OVCAR-8 = tested on: OVCAR-8
KM-20L2 = tested on: KM-20L2
786-0 = tested on: 786-0
K562 = tested on: K562
SK-MEL-5 = tested on: SK-MEL-5
CAKI-1 = tested on: CAKI-1
MOLT-4 = tested on: MOLT-4
Malme-3M = tested on: Malme-3M
NCI-H460 = tested on: NCI-H460
OVCAR-4 = tested on: OVCAR-4
ACHN = tested on: ACHN
HOP-62 = tested on: HOP-62
SF-539 = tested on: SF-539
SR = tested on: SR
SK-MEL-2 = tested on: SK-MEL-2
TK-10 = tested on: TK-10
HOP-92 = tested on: HOP-92
DLD-1 = tested on: DLD-1
UACC-257 = tested on: UACC-257
HL-60 = tested on: HL-60
KM12 = tested on: KM12
SN12C = tested on: SN12C
RXF 631 = tested on: RXF 631
NCI-H23 = tested on: NCI-H23
LOX IMVI = tested on: LOX IMVI
A498 = tested on: A498
UO-31 = tested on: UO-31
RXF 393 = tested on: RXF 393
SK-OV-3 = tested on: SK-OV-3
CCRF-CEM = tested on: CCRF-CEM
M19-MEL = tested on: M19-MEL
SK-MEL-28 = tested on: SK-MEL-28
XF498 = tested on: XF498
OVCAR-3 = tested on: OVCAR-3
RPMI-8226 = tested on: RPMI-8226
M14 = tested on: M14
NCI-H522 = tested on: NCI-H522
HCT-15 = tested on: HCT-15
SNB-75 = tested on: SNB-75
HCT-116 = tested on: HCT-116
HCC 2998 = tested on: HCC 2998

CCN(CC)c1c(C(=O)/C=C/c2ccc(OC)cc2)c(-c2ccccc2)nn(C)c1=O
GI50 (EKVX): 8 µM (inactive)
GI50 (SNB-19): 17.8 µM (inactive)
GI50 (SNB-78): 25 µM (inactive)
GI50 (IGROV-1): 19.2 µM (inactive)
GI50 (NCI-H226): 16.1 µM (inactive)
GI50 (SW-620): 26.5 µM (inactive)
GI50 (HT-29): 9.51 µM (inactive)
GI50 (COLO 205): 3.87 µM (inactive)
GI50 (U-251): 13.5 µM (inactive)
GI50 (SF-268): 6.52 µM (inactive)
GI50 (HOP-18): 22.2 µM (inactive)
GI50 (DMS-114): 13.4 µM (inactive)
GI50 (SF-295): 21.5 µM (inactive)
GI50 (LXFL 529): 10.7 µM (inactive)
GI50 (DMS-273): 2.37 µM (inactive)
GI50 (UACC-62): 10.5 µM (inactive)
GI50 (OVCAR-5): 5.46 µM (inactive)
GI50 (A549): 12 µM (inactive)
GI50 (OVCAR-8): 22.2 µM (inactive)
GI50 (KM-20L2): 15.4 µM (inactive)
GI50 (786-0): 14.1 µM (inactive)
GI50 (K562): 9.06 µM (inactive)
GI50 (SK-MEL-5): 8.41 µM (inactive)
GI50 (CAKI-1): 29.8 µM (inactive)
GI50 (MOLT-4): 2.67 µM (inactive)
GI50 (Malme-3M): 15.1 µM (inactive)
GI50 (NCI-H460): 7.83 µM (inactive)
GI50 (OVCAR-4): 8.75 µM (inactive)
GI50 (ACHN): 10.9 µM (inactive)
GI50 (HOP-62): 45.9 µM (inactive)
GI50 (SF-539): 17.1 µM (inactive)
GI50 (SR): 5.55 µM (inactive)
GI50 (SK-MEL-2): 18.6 µM (inactive)
GI50 (TK-10): 32.8 µM (inactive)
GI50 (HOP-92): 6.07 µM (inactive)
GI50 (DLD-1): 12.1 µM (inactive)
GI50 (UACC-257): 19.6 µM (inactive)
GI50 (HL-60): 6.7 µM (inactive)
GI50 (KM12): 12.7 µM (inactive)
GI50 (SN12C): 21 µM (inactive)
GI50 (RXF 631): 20.6 µM (inactive)
GI50 (NCI-H23): 10.4 µM (inactive)
GI50 (LOX IMVI): 14.9 µM (inactive)
GI50 (A498): 20.9 µM (inactive)
GI50 (UO-31): 36.6 µM (inactive)
GI50 (RXF 393): 10.6 µM (inactive)
GI50 (SK-OV-3): 36 µM (inactive)
GI50 (CCRF-CEM): 6.78 µM (inactive)
GI50 (M19-MEL): 6.34 µM (inactive)
GI50 (SK-MEL-28): 16.7 µM (inactive)

CC(C)(C)C(=C[S+]([O-])/N=C/c1ccccc1)C(C)(C)C (configuration not stated)
GI50 (EKVX): 52.1 µM (inactive)
GI50 (XF498): 23 µM (inactive)
GI50 (SNB-19): 44.7 µM (inactive)
GI50 (SNB-78): 12.2 µM (inactive)
GI50 (IGROV-1): 25.8 µM (inactive)
GI50 (NCI-H226): 20.7 µM (inactive)
GI50 (SW-620): 50 µM (inactive)
GI50 (HT-29): 38.4 µM (inactive)
GI50 (COLO 205): 41.1 µM (inactive)
GI50 (OVCAR-3): 34.1 µM (inactive)
GI50 (U-251): 25.1 µM (inactive)
GI50 (SF-268): 49.4 µM (inactive)
GI50 (RPMI-8226): 20.8 µM (inactive)
GI50 (M14): 40.2 µM (inactive)
GI50 (DMS-114): 28.1 µM (inactive)
GI50 (LXFL 529): 28.4 µM (inactive)
GI50 (DMS-273): 32.3 µM (inactive)
GI50 (NCI-H522): 23 µM (inactive)
GI50 (HCT-15): 23 µM
GI50 (OVCAR-5): 48.6 µM (inactive)
GI50 (A549): 33.4 µM (inactive)
GI50 (OVCAR-8): 59.4 µM (inactive)
GI50 (KM-20L2): 52.8 µM (inactive)
GI50 (SNB-75): 16.4 µM (inactive)
GI50 (786-0): > 100 µM (inactive)
GI50 (K562): 1.23 µM (inactive)
GI50 (SK-MEL-5): 24.3 µM (inactive)
GI50 (CAKI-1): 30 µM (inactive)
GI50 (MOLT-4): 14 µM (inactive)
GI50 (Malme-3M): 22.3 µM (inactive)
GI50 (NCI-H460): 24.8 µM (inactive)
GI50 (OVCAR-4): 21.4 µM (inactive)
GI50 (ACHN): 36.8 µM (inactive)
GI50 (HOP-62): 37.8 µM (inactive)
GI50 (SF-539): > 100 µM (inactive)
GI50 (HCT-116): 30.4 µM (inactive)
GI50 (SR): 24.7 µM (inactive)
GI50 (SK-MEL-2): 15.9 µM (inactive)
GI50 (TK-10): > 100 µM (inactive)
GI50 (HOP-92): 19.7 µM (inactive)
GI50 (DLD-1): 31 µM (inactive)
GI50 (UACC-257): 52 µM (inactive)
GI50 (KM12): 44.6 µM (inactive)
GI50 (SN12C): 21.1 µM (inactive)
GI50 (RXF 631): 38.6 µM (inactive)
GI50 (NCI-H23): 48 µM (inactive)
GI50 (LOX IMVI): 18.8 µM (inactive)
GI50 (A498): 36.4 µM (inactive)
GI50 (UO-31): 27.2 µM (inactive)
GI50 (RXF 393): 26.7 µM (inactive)
GI50 (SK-OV-3): 26.6 µM (inactive)
GI50 (CCRF-CEM): 17.8 µM (inactive)
GI50 (M19-MEL): 36.1 µM (inactive)
GI50 (SK-MEL-28): > 100 µM (inactive)

Cc1ccccc1-n1c(N)c(-c2nc3ccccc3[nH]2)sc1=S
GI50 (EKVX): 53.5 µM (inactive)
GI50 (SNB-19): 24.9 µM (inactive)
GI50 (HCC 2998): 18.3 µM (inactive)
GI50 (SNB-78): 32.4 µM (inactive)
GI50 (IGROV-1): 24.8 µM (inactive)
GI50 (NCI-H226): 36 µM (inactive)
GI50 (SW-620): 31.1 µM (inactive)
GI50 (HT-29): 19.6 µM (inactive)
GI50 (COLO 205): 22.6 µM (inactive)
GI50 (OVCAR-3): 20 µM (inactive)
GI50 (U-251): > 10 µM (inactive)
GI50 (SF-268): 29.6 µM (inactive)
GI50 (RPMI-8226): 23.1 µM (inactive)
GI50 (M14): 20.5 µM (inactive)
GI50 (HOP-18): 30.2 µM (inactive)
GI50 (DMS-114): 24.2 µM (inactive)
GI50 (SF-295): 22.6 µM (inactive)
GI50 (LXFL 529): 22.1 µM (inactive)
GI50 (DMS-273): 18.9 µM (inactive)
GI50 (NCI-H522): 21.3 µM (inactive)
GI50 (UACC-62): 18.8 µM (inactive)
GI50 (HCT-15): 34.7 µM
GI50 (OVCAR-5): 37 µM (inactive)
GI50 (A549): 31.3 µM (inactive)
GI50 (OVCAR-8): 32.8 µM (inactive)
GI50 (SNB-75): 29.4 µM (inactive)
GI50 (786-0): 30.1 µM (inactive)
GI50 (K562): 36.6 µM (inactive)
GI50 (SK-MEL-5): 20.8 µM (inactive)
GI50 (CAKI-1): 37.8 µM (inactive)
GI50 (MOLT-4): 27.7 µM (inactive)
GI50 (Malme-3M): 21.5 µM (inactive)
GI50 (OVCAR-4): 28.8 µM (inactive)
GI50 (ACHN): 35 µM (inactive)
GI50 (HOP-62): 25 µM (inactive)
GI50 (SF-539): 24.1 µM (inactive)
GI50 (SK-MEL-2): 23.9 µM (inactive)
GI50 (TK-10): 39.3 µM (inactive)
GI50 (DLD-1): 27.3 µM (inactive)
GI50 (UACC-257): 19.3 µM (inactive)
GI50 (HL-60): 26.1 µM (inactive)
GI50 (KM12): 20.7 µM (inactive)
GI50 (SN12C): 26.4 µM (inactive)
GI50 (RXF 631): 24.9 µM (inactive)
GI50 (NCI-H23): 23.3 µM (inactive)
GI50 (LOX IMVI): 28.1 µM (inactive)
GI50 (A498): 40.1 µM (inactive)
GI50 (UO-31): 23.8 µM (inactive)
GI50 (RXF 393): 30.1 µM (inactive)
GI50 (SK-OV-3): 43.4 µM (inactive)
GI50 (CCRF-CEM): 36.5 µM (inactive)
GI50 (M19-MEL): 23.3 µM (inactive)
GI50 (SK-MEL-28): 20 µM (inactive)
